target: T1, KRAS G12C 1-169, his-tagged protein, GDP-loaded (Homo sapiens, UniProt P01116, G12C); test: Biochemical assay: covalent binding to KRAS G12C analyzed by mass spectrometry; conditions: compounds 1-47, measured at 24 h; note: test concentration or dose not given here
T1 construct: KRAS G12C 1-169, his-tagged protein, GDP-loaded
T1 sequence (P01116 1-169 isoform P01116-2 G12C): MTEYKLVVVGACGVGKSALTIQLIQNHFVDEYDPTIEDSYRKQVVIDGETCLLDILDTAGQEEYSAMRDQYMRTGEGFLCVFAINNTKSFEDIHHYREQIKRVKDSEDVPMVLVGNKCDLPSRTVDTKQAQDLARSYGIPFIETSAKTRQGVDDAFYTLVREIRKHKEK

Question: With `C=CC(=O)N1CCN(c2ncnc3[nH]cc(-c4ccccc4Cl)c23)CC1` [Compound I-28, 1-(4-(5-(2-chlorophenyl)-7H-pyrrolo[2,3-d]pyrimidin-4-yl)piperazin-1-yl)prop-2-en-1-one] as the molecule, how does the Binding % read?
Answer: + (+indicates binding activity from 5% to 25%)

Question: How did the Binding % turn out when `C=CC(=O)N1CCN(c2ncnc3cc(Cl)c(-c4cc(F)ccc4Cl)cc23)CC1` [Compound I-23, 1-(4-(7-chloro-6-(2-chloro-5-fluorophenyl)quinazolin-4-yl)piperazin-1-yl)prop-2-en-1-one] was run?
Answer: ++ (++indicates binding activity greater than 25% and up to 50%)

Question: For `C=CC(=O)N1CCN(c2ncc3cccc(-c4ccccc4Cl)c3n2)CC1` [Compound I-35, 1-(4-(8-(2-chlorophenyl)quinazolin-2-yl)piperazin-1-yl)prop-2-en-1-one], which Binding % is on record?
Answer: + (+indicates binding activity from 5% to 25%)

Question: Which Binding % does the source give for `C=CC(=O)N1CCN(c2nccc3cc(Cl)c(-c4ccc(Cl)cc4)cc23)CC1` [Compound I-37, 1-(4-(6-chloro-7-(4-chlorophenyl)isoquinolin-1-yl)piperazin-1-yl)prop-2-en-1-one] here?
Answer: ++ (++indicates binding activity greater than 25% and up to 50%)

same assay, conditions: compounds 48-246, measured at 2 h

Question: Which Binding % does the source give for `C#CC1CN(c2ncnc3cc(-c4ccc(F)cc4F)c(Cl)cc23)CCN1C(=O)C=C` (stereo not shown) [Compound I-195, 1-(4-(6-chloro-7-(2,4-difluorophenyl)quinazolin-4-yl)-2-ethynylpiperazin-1-yl)prop-2-en-1-one] here?
Answer: ++++ (++++indicates binding activity greater than 75%)

Question: Which Binding % does the source give for `C=CC(=O)N1CCN(c2ncnc3cc(-c4c(C)ccc5[nH]ncc45)c(C(F)(F)F)cc23)CC1` [Compound I-237, 1-(4-(7-(5-methyl-1H-indazol-4-yl)-6-(trifluoromethyl)quinazolin-4-yl)piperazin-1-yl)prop-2-en-1-one] here?
Answer: ++++ (++++indicates binding activity greater than 75%)

Question: For `C=CC(=O)N1CCN(c2ncnc3cc(-c4ccc(F)cc4C(N)=O)c(Cl)cc23)CC1` [Compound I-193, 2-(4-(4-acryloylpiperazin-1-yl)-6-chloroquinazolin-7-yl)-5-fluorobenzamide], which Binding % is on record?
Answer: ++ (++indicates binding activity greater than 25% and up to 50%)

Question: Which Binding % does the source give for `C=CC(=O)N1CC(N2CCN(C(=O)OC(C)(C)C)CC2)C1` [Example 50, tert-butyl 4-(1-acryloylazetidin-3-yl)piperazine-1-carboxylate] here?
Answer: + (+indicates binding activity from 5% to 25%)

Question: With `C=CC(=O)N1CCN(c2ncnc3cc(-c4cccc5cn[nH]c45)c(Cl)cc23)CC1` [Compound I-152, 1-(4-(6-chloro-7-(1H-indazol-7-yl)quinazolin-4-yl)piperazin-1-yl)prop-2-en-1-one] as the molecule, how does the Binding % read?
Answer: +++ (+++indicates binding activity greater than 50% and up to 75%)

Question: Which Binding % does the source give for `CN(C)C/C=C/C(=O)N1CCN(c2ncnc3cc(-c4ccc(F)cc4F)c(Cl)cc23)CC1` [Compound I-219, (E)-1-(4-(6-chloro-7-(2,4-difluorophenyl)quinazolin-4-yl)piperazin-1-yl)-4-(dimethylamino)but-2-en-1-one] here?
Answer: + (+indicates binding activity from 5% to 25%)

Question: Which Binding % does the source give for `C=CC(=O)N1CCN(c2ncnc3cc(-c4cc(C(N)=O)ccc4F)c(Cl)cc23)CC1` [Compound I-155, 3-(4-(4-acryloylpiperazin-1-yl)-6-chloroquinazolin-7-yl)-4-fluorobenzamide] here?
Answer: ++ (++indicates binding activity greater than 25% and up to 50%)

Question: Which Binding % does the source give for `C=CC(=O)N1CCN(c2ncnc3cc(-c4ccc(F)cc4F)c(Cl)cc23)CC1` [Compound I-112, 1-(4-(6-chloro-7-(2,4-difluorophenyl)quinazolin-4-yl)piperazin-1-yl)prop-2-en-1-one] here?
Answer: +++ (+++indicates binding activity greater than 50% and up to 75%)

Question: With `C=CC(=O)N1CCN(c2ncnc3cc(-c4ccccc4C(F)(F)F)c(Cl)cc23)CC1C` (stereo not shown) [Compound I-124, 1-(4-(6-chloro-7-(2-(trifluoromethyl)phenyl)quinazolin-4-yl)-2-methylpiperazin-1-yl)prop-2-en-1-one] as the molecule, how does the Binding % read?
Answer: +++ (+++indicates binding activity greater than 50% and up to 75%)

Question: With `C=CC(=O)N1CCN(c2ncnc3cc(-c4ccccc4)c(CC)cc23)CC1` [Compound I-93, 1-(4-(6-ethyl-7-phenylquinazolin-4-yl)piperazin-1-yl)prop-2-en-1-one] as the molecule, how does the Binding % read?
Answer: + (+indicates binding activity from 5% to 25%)

Question: For `C=CC(=O)N1CCN(c2ncnc3cc(-c4ccc(F)cc4C(F)(F)F)c(Cl)cc23)CC1` [Compound I-119, 1-(4-(6-chloro-7-(4-fluoro-2-(trifluoromethyl)phenyl)quinazolin-4-yl)piperazin-1-yl)prop-2-en-1-one], which Binding % is on record?
Answer: +++ (+++indicates binding activity greater than 50% and up to 75%)

Question: Which Binding % does the source give for `C=CC(=O)N1CCN(c2ncnc3cc(-c4ccccc4F)c(Cl)cc23)CC1CC#N` (stereo not shown) [Compound I-106] here?
Answer: ++++ (++++indicates binding activity greater than 75%)

Question: `C=CC(=O)N1CCN(c2ncnc3cc(-c4cccc(C(=O)N(C)C)c4F)c(Cl)cc23)CC1` [Compound I-131, 3-(4-(4-acryloylpiperazin-1-yl)-6-chloroquinazolin-7-yl)-2-fluoro-N,N-dimethylbenzamide] was tested. Which Binding % did it give?
Answer: + (+indicates binding activity from 5% to 25%)

Question: Which Binding % does the source give for `C=CC(=O)N1CCN(c2ncnc3cc(-c4ccccc4Cl)c(Cl)cc23)CC1CC#N` (stereo not shown) [Compound I-109, 2-(1-acryloyl-4-(6-chloro-7-(2-chlorophenyl)quinazolin-4-yl)piperazin-2-yl)acetonitrile] here?
Answer: ++++ (++++indicates binding activity greater than 75%)

Question: With `C=CC(=O)N1CCN(c2ncnc3cc(Cl)c(-c4ccc(Cl)cc4)cc23)CC1CN(C)C` (stereo not shown) [Compound I-60, 1-(4-(7-chloro-6-(4-chlorophenyl)quinazolin-4-yl)-2-((dimethylamino)methyl)piperazin-1-yl)prop-2-en-1-one] as the molecule, how does the Binding % read?
Answer: + (+indicates binding activity from 5% to 25%)

same assay, conditions: compounds 247-342, measured at 30 min

Question: `C=CC(=O)N1CCN(c2ncnc3c(F)c(-c4cc(C(F)F)ccc4F)c(Cl)cc23)CC1` [Compound 307, 1-(4-(6-chloro-7-(5-(difluoromethyl)-2-fluorophenyl)-8-fluoroquinazolin-4-yl)piperazin-1-yl)prop-2-en-1-one] was tested. Which Binding % did it give?
Answer: ++ (++indicates binding activity greater than 25% and up to 50%)

Question: With `C=CC(=O)N1CCN(c2ncnc3cc(-c4c(O)ccc5c4CCCC5)c(Cl)cc23)CC1` [Compound I-250, 1-(4-(6-chloro-7-(2-hydroxy-5,6,7,8-tetrahydronaphthalen-1-yl)quinazolin-4-yl)piperazin-1-yl)prop-2-en-1-one] as the molecule, how does the Binding % read?
Answer: ++ (++indicates binding activity greater than 25% and up to 50%)

Question: Which Binding % does the source give for `C=CC(=O)N1CCN(c2nc(=O)[nH]c3cc(-c4c(C)ccc5[nH]ncc45)c(Cl)cc23)CC1` [Compound 326, 4-(4-acryloylpiperazin-1-yl)-6-chloro-7-(5-methyl-1H-indazol-4-yl)quinazolin-2(1H)-one] here?
Answer: + (+indicates binding activity from 5% to 25%)

Question: `C=CC(=O)N1CCN(c2ncnc3c(F)c(-c4ccccc4F)c(C(F)(F)F)cc23)CC1` [Compound I-271] was tested. Which Binding % did it give?
Answer: +++ (+++indicates binding activity greater than 50% and up to 75%)

Question: Which Binding % does the source give for `C=CC(=O)N1CCN(c2nc(Nc3cnn(C)c3)nc3c(F)c(-c4c(C)ccc5[nH]ncc45)c(Cl)cc23)CC1` [Compound 322, 1-(4-(6-chloro-8-fluoro-7-(5-methyl-1H-indazol-4-yl)-2-(1-methyl-1H-pyrazol-4-ylamino)quinazolin-4-yl)piperazin-1-yl)prop-2-en-1-one] here?
Answer: +++ (+++indicates binding activity greater than 50% and up to 75%)

Question: How did the Binding % turn out when `C=CC(=O)N1CCN(c2nc(NC)nc3cc(-c4c(C)ccc5[nH]ncc45)c(Cl)cc23)CC1` [Compound 312, 1-(4-(6-chloro-7-(5-methyl-1H-indazol-4-yl)-2-(methylamino)quinazolin-4-yl)piperazin-1-yl)prop-2-en-1-one] was run?
Answer: ++++ (++++indicates binding activity greater than 75%)

Question: How did the Binding % turn out when `CN(C)C/C=C/C(=O)N1CCN(c2ncnc3c(F)c(-c4c(O)cccc4F)c(Cl)cc23)CC1` [Compound 301, (E)-1-(4-(6-chloro-8-fluoro-7-(2-fluoro-6-hydroxyphenyl)quinazolin-4-yl)piperazin-1-yl)-4-(dimethylamino)but-2-en-1-one] was run?
Answer: ++ (++indicates binding activity greater than 25% and up to 50%)

Question: How did the Binding % turn out when `C=CC(=O)N1CCN(c2nc(OCCN3CCOCC3)nc3c(F)c(-c4c(C)ccc5[nH]ncc45)c(Cl)cc23)CC1` [Compound 342, 1-(4-(6-chloro-8-fluoro-7-(5-methyl-1H-indazol-4-yl)-2-(2-morpholinoethoxy)quinazolin-4-yl)piperazin-1-yl)prop-2-en-1-one] was run?
Answer: ++++ (++++indicates binding activity greater than 75%)

same assay, conditions: determined at 2 hrs

Question: Which Binding % does the source give for `C=CC(=O)N1CC(N2CCN(C(=O)[C@H](C)Nc3cc(CC)c(Cl)cc3O)CC2)C1` [II-69, (S)-1-(3-(4-(2-((4-Chloro-5-ethyl-2-hydroxyphenyl)amino)propanoyl)piperazin-1-yl)azetidin-1-yl)prop-2-en-1-one] here?
Answer: ++ (++indicates binding activity greater than 20%)

Question: How did the Binding % turn out when `C=CC(=O)N1CC(N2CCN(C(=O)[C@H](C)Nc3cc(C4CC4)c(Cl)cc3O)CC2)C1` [II-67, (S)-1-(3-(4-(2-((4-Chloro-5-cyclopropyl-2-hydroxyphenyl)amino)propanoyl)piperazin-1-yl)azetidin-1-yl)prop-2-en-1-one] was run?
Answer: ++ (++indicates binding activity greater than 20%)

same assay, conditions: determined at 24 hrs

Question: `C=CC(=O)N1CC(N2CCN(C(=O)C(CC)Nc3cc(Cl)c(Cl)cc3O)CC2)C1` (stereo not shown) [II-49, 1-(4-(1-acryloylazetidin-3-yl)piperazin-1-yl)-2-(4,5-dichloro-2-hydroxyphenyl-amino)butan-1-one] was tested. Which Binding % did it give?
Answer: ++++ (++++indicates binding activity greater than 50%)

Question: With `C=CC(=O)N1CC(N2CCN(C(=O)c3cc(-c4cc(Cl)ccc4Cl)c(Cl)cc3OC)CC2)C1` [II-13, 1-(3-(4-(2′,5′,6-trichloro-4-methoxybiphenyl-carbonyl)piperazin-1-yl)azetidin-1-yl)prop-2-en-1-one] as the molecule, how does the Binding % read?
Answer: ++ (++indicates binding activity greater than 15% and up to 25%)

Source: patent US10111874B2, “Combination therapies for treatment of cancer” (Araxes Pharma LLC, priority 2014, dated 2018)
